# Source: US5932555A (priority 1997, dated 1999)
# Where two headings read alike, the source gives them in different places.
# Columns and labels:
# ICR mice = test: Acute toxicity test
# Acute toxicity test = settings: mouse, in vivo, iv
# [1] = system: cytotoxic T cell induction by allogenic immunization; test: In vivo mouse cytotoxic T cell induction test; set-up: species or system mouse (C57BL/6)
# Procedure: A 8-week-old, female C57BL/6 mouse (H-2^b) was immunized intraperitoneally with 0.2 ml of cultured cell line P815 suspension (5×10^7 cells/ml PBS) derived from DBA/2 (H-2^d), and 0.2 to 0.3 ml of 0.1 mg/ml sample was administered intraperitoneally at a dosage of 1 mg/kg body weight/day for 5 days including the day of immunization.
# To measure cytotoxic T cell activity, 100 μl of the effector cell suspension and 100 μl of the target cell suspension were put to each well on a 96-well round-bottomed microplate and incubated at 37° C. for 4 hours, and the cells were centrifuged and the amount of ^51 Cr released into the supernatant was measured and the cytotoxic T cell activity was calculated using the following equation 2:
# Cytotoxic T cell activity=A/B×100 (2)
# A: (radioactivity of effector cells+target cells)-(radioactivity of only target cells)
# B: (radioactivity of target cells treated with 0.1 N HCl)-(radioactivity of only target cells)
# The cytotoxic T cell activity was expressed in terms of lytic unit (LU). One LU is defined as the number of effector cells required for 20% lysis of 2×10^4 target cells, and the result is shown in LU per spleen.
# Similarly, the mouse was immunized and then administered 0.2 to 0.3 ml of 1 mg/ml of the sample (i.e. at a dosage of 10 mg/kg body weight/day) by intraperitoneal administration for 5 days and the cytotoxic activity was determined.
# Solubility = type: physicochemical
# CDF1 mice = test: Repeated administration toxicity test (intraperitoneal); type: in vivo, mouse (CDF1); settings: for Body weight, Day 0: Day 0 (baseline)
# Procedure: (§1) As the comparative control, test solutions of adriamycin were prepared in the same manner. […] The number with time of survived animals after administration and the average body weights on Days 0, 5, and 10 were determined.
# [2] = as above; type: in vivo, mouse (CDF1); settings: mouse, in vivo, ip, read-out: Fatality rate
# Procedure: as §1
# P388 [3] = test: Mouse in vivo antitumor test, P388 transplanted
# Procedure: 2×10^5 cells of P388 or P388/ADR were inoculated intraperitoneally into each of CDF1 mice (male, each weighing 20 g, 10 animals/group), and from the next day, the test solution was administered at 10, 5, and 1 mg/kg body weight/day respectively by intraperitoneal injection of 200 μl sample at each concentration once a day for 10 successive days. The numbers with time of mice which survived after administration was counted and the average survival days and T/C (survival days of treated mice/survival days of control mice) were calculated. The average body weights after 10 days were also measured.
# P388 [4] = test: Cytotoxicity test on cultured tumor cell line P388 (MTT, 72 h); type: cell-based
# Procedure: Cultured tumor cell lines P388 and P388/ADR were suspended in RPMI1640 medium containing 10% heat inactivated fetal calf serum (FCS) and 20 μM 2-mercaptoethanol whereby a cell suspension (5×10^4 cells/ml) was prepared.
# 72 hours thereafter, cell growth was measured by a calorimetric assay method using 3-(4,5-dimethyl-2-thiazolyl)-2,5-diphenyl-2H-tetrazolium bromide (MTT) as follows: 20 μl of 2 mg/ml MTT solution was added to each well and the cells were incubated for 4 hours at 37° C. Thereafter, 50 μl of 50% dimethylformamide solution containing 20% sodium dodecyl sulfate was added to each well and allowed to stand, so that the formed violet formazan crystal was dissolved, and its absorbance at 570 nm was measured in a microplate absorbance photometer (Immunoreader) and used as an indicator of the growth.
# Degree of inhibition=[1-(absorbance in presence of sample)/(absorbance in
# absence of sample)]×100 (1)
# [5] = P388, 1 mg/kg/day i.p. × 10 days
# [6] = P388, 5 mg/kg/day i.p. × 10 days
# [7] = P388, 10 mg/kg/day i.p. × 10 days
structure (smiles),measurement,setting,value
COC(CC1C(C)=CCC2C1(C)CCC1C(C)(C)C(O)C(OC3OC(C)C(OC(=O)c4cccc(O)c4)C(OC4OC(CO)C(O)C(O)C4NC(C)=O)C3O)CC12C)C(N)C(=O)O (stereo not drawn) [0406TP-1],survival,"ICR mice; 100 mg/kg i.v., one month observation",all survived
same,toxicity and safety,"ICR mice; acute toxicity test, in words",low toxicity
same,LD50 at 730 h,Acute toxicity test,> 100 mg/kg
same,Cytotoxic T cell activity,[1]; 1.0 mg/kg/day × 5 days i.p.,350 LU/spleen
same,Cytotoxic T cell activity inhibition,[1]; 1.0 mg/kg/day × 5 days i.p.,12%
same,Cytotoxic T cell activity,[1]; 10 mg/kg/day × 5 days i.p.,285 LU/spleen
same,Cytotoxic T cell activity inhibition,[1]; 10 mg/kg/day × 5 days i.p.,38%
same,inhibition of induction of cytotoxic T cells in spleen cells,"[1]; allogenic-immunized mouse, intraperitoneal, in words",inhibit induction of cytotoxic T cells
same,Solubility,Solubility; acetone,Insoluble
same,Solubility,Solubility; chloroform,Insoluble
same,Solubility,Solubility; ethanol,Soluble
same,Solubility,Solubility; ether,Insoluble
same,Solubility,Solubility; ethyl acetate,Insoluble
same,Solubility,Solubility; methanol,Soluble
same,Solubility,Solubility; water,Soluble
same,"Body weight, Day 0",CDF1 mice; 1 mg/kg/day i.p. group,22.0 g
same,"Body weight, Day 5",CDF1 mice; 1 mg/kg/day i.p.,23.1 g
same,"Body weight, Day 10",CDF1 mice; 1 mg/kg/day i.p.,25.0 g
same,"Body weight, Day 0",CDF1 mice; 5 mg/kg/day i.p. group,21.8 g
same,"Body weight, Day 5",CDF1 mice; 5 mg/kg/day i.p.,23.7 g
same,"Body weight, Day 10",CDF1 mice; 5 mg/kg/day i.p.,25.5 g
same,"Body weight, Day 0",CDF1 mice; 10 mg/kg/day i.p. group,21.4 g
same,"Body weight, Day 5",CDF1 mice; 10 mg/kg/day i.p.,23.6 g
same,"Body weight, Day 10",CDF1 mice; 10 mg/kg/day i.p.,25.4 g
same,mortality,[2]; 1 mg/kg/day i.p. × 10 days,0%
same,mortality,[2]; 5 mg/kg/day i.p. × 10 days,0%
same,mortality,[2]; 10 mg/kg/day i.p. × 10 days,0%
same,T/C,P388 [3]; [5],123%
same,average body weight after 10 days,P388 [3]; [5],25.9 g
same,average survival days,P388 [3]; [5],12.7 days
same,T/C,P388 [3]; [6],123%
same,average body weight after 10 days,P388 [3]; [6],26.3 g
same,average survival days,P388 [3]; [6],12.7 days
same,T/C,P388 [3]; [7],128%
same,average body weight after 10 days,P388 [3]; [7],27.3 g
same,average survival days,P388 [3]; [7],13.2 days
same,therapeutic effect (improvement in survival rate),"P388 [3]; P388-transplanted mice, adriamycin 1 mg/kg/day vs 0406TP-1",same degree of therapeutic effect
same,IC50,"P388 [4]; Mus musculus, P388, 72 h, MTT, read-out: IC50 (growth inhibition)",0.65 µg/mL
same,cytotoxicity (antitumor activity) on cultured tumor cells,P388 [4]; in words,strong cytotoxicity
